{
  "source": "patent US4436918A",
  "about": "“Method for production of peptide, and its intermediate” (Takeda Chemical Industries, Ltd., priority 1981, dated 1984)",
  "experiment_in_all_cases": "Antibacterial activity, agar dilution method (MIC)",
  "format_in_all_cases": "cell-based",
  "key": {"[1]": {"tested_on": "Proteus morganii IFO 3168", "conditions": "Morganella morganii, IFO3168, 10^6 CFU/ml, 37° C., 18-20 hours, pH 7.0", "protocol": "(§1) The above-mentioned minimum inhibitory concentration (MIC; μg/ml) values were determined by the agar dilution method using the medium mentioned below. The inoculum size was one loopful with a viable count of 10^6 CFU/ml. Incubation was performed at 37° C. for 18-20 hours. Medium: glucose 3%, sodium glutamate 0.5%, K2 HPO4 0.05%, MgSO4.7H2 O 0.05%, KCl 0.05%, yeast extract (Difco) 0.05%, Casamino acid 0.02%, agar 1.5% (pH 7.0)."}, "[2]": {"tested_on": "Proteus vulgaris IFO 3988", "conditions": "IFO3988, 10^6 CFU/ml, 37° C., 18-20 hours, pH 7.0", "protocol": "as §1"}, "[3]": {"tested_on": "Proteus vulgaris IFO 3045", "conditions": "IFO3045, 10^6 CFU/ml, 37° C., 18-20 hours, pH 7.0", "protocol": "as §1"}, "[4]": {"tested_on": "Bacillus subtilis PCI 219", "conditions": "PCI219, 10^6 CFU/ml, 37° C., 18-20 hours, pH 7.0", "protocol": "as §1"}, "[5]": {"tested_on": "Escherichia coli NIHJ JC-2", "conditions": "NIHJJC2, 10^6 CFU/ml, 37° C., 18-20 hours, pH 7.0", "protocol": "as §1"}},
  "data": [
    {"smiles": "C[C@@H](N)C(=O)NC(C(=O)O)C1CC(O)NC1=O", "note": "(stereo partly drawn) [D-Alanyl-2-(5-hydroxy-2-oxopyrrolidin-3-yl)glycine]", "values": [
      {"measurement": "MIC", "setting": "[1]", "value": "3 to 12", "unit": "µg/mL"},
      {"measurement": "MIC", "setting": "[2]", "value": "1.6 to 4.8", "unit": "µg/mL"},
      {"measurement": "MIC", "setting": "[3]", "value": "0.6 to 2.4", "unit": "µg/mL"},
      {"measurement": "MIC", "setting": "[4]", "value": "6 to 24", "unit": "µg/mL"},
      {"measurement": "MIC", "setting": "[5]", "value": "3 to 12", "unit": "µg/mL"}
    ]}
  ]
}
